Assay results taken from PubChem BioAssay AID248 (DTP/NCI, 2004).
Inconclusive results and toxic doses are left out. Rule as the data show it: active = T/C of 150% or more; inactive = T/C below 125%.

Test system: L1210 leukemia ip in BDF1 mice, survival T/C
Assay: NCI In Vivo Anticancer Drug Screen. Data for tumor model L1210 Leukemia (intraperitoneal) in B6D2F1 (BDF1) mice
Settings: endpoint: mean survival time, higher = longer survival
How it was run: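 Antitumor effect is assessed in tumor-bearing animals. Survival in the compound arm is compared with a vehicle-dosed control arm and expressed as their quotient.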

[1] = dose: 100.0 mg/kg/injection, schedule: Q01DX001 (ip), vehicle: carboxymethylcellulose (CMC)
[2] = dose: 200.0 mg/kg/injection, schedule: Q01DX001 (ip), vehicle: carboxymethylcellulose (CMC)
[3] = dose: 400.0 mg/kg/injection, schedule: Q01DX001 (ip), vehicle: carboxymethylcellulose (CMC)
[4] = dose: 100.0 mg/kg/injection, schedule: Q01DX001 (ip), vehicle: saline
[5] = dose: 200.0 mg/kg/injection, schedule: Q01DX001 (ip), vehicle: saline
[6] = dose: 400.0 mg/kg/injection, schedule: Q01DX001 (ip), vehicle: saline
[7] = dose: 50.0 mg/kg/injection, schedule: Q04DX003 (ip), vehicle: saline
[8] = dose: 100.0 mg/kg/injection, schedule: Q01DX009 (ip), vehicle: saline
[9] = dose: 100.0 mg/kg/injection, schedule: Q04DX003 (ip), vehicle: saline
[10] = dose: 100.0 mg/kg/injection, schedule: Q04DX003 (ip), vehicle: saline with Tween-80
[11] = dose: 200.0 mg/kg/injection, schedule: Q04DX003 (ip), vehicle: saline with Tween-80
[12] = dose: 400.0 mg/kg/injection, schedule: Q04DX003 (ip), vehicle: saline with Tween-80
[13] = dose: 100.0 mg/kg/injection, schedule: Q01DX009 (ip), vehicle: saline with Tween-80
[14] = dose: 200.0 mg/kg/injection, schedule: Q01DX009 (ip), vehicle: saline with Tween-80
[15] = dose: 400.0 mg/kg/injection, schedule: Q01DX009 (ip), vehicle: saline with Tween-80
[16] = dose: 100.0 mg/kg/injection, schedule: Q04DX003 (ip), vehicle: Klucel (hydroxypropylcellulose) (HPC)
[17] = dose: 200.0 mg/kg/injection, schedule: Q04DX003 (ip), vehicle: Klucel (hydroxypropylcellulose) (HPC)
[18] = dose: 400.0 mg/kg/injection, schedule: Q04DX003 (ip), vehicle: Klucel (hydroxypropylcellulose) (HPC)
[19] = dose: 100.0 mg/kg/injection, schedule: Q04DX002 (ip), vehicle: saline with Tween-80
[20] = dose: 200.0 mg/kg/injection, schedule: Q04DX002 (ip), vehicle: saline with Tween-80
[21] = dose: 400.0 mg/kg/injection, schedule: Q04DX002 (ip), vehicle: saline with Tween-80

Measured: T/C

O/N=C1\c2ccccc2-c2cc(Br)ccc21
inactive: [1] 95 % of control | [2] 95 % of control | [3] 90 % of control

CCOC1OC(CO)C(O)C(O)C1O (stereo not drawn)
inactive: [4] 102 % of control | [5] 98 % of control | [6] 109 % of control

CNCCc1ccc(OC)c(OC)c1
inactive: dose: 25.0 mg/kg/injection, schedule: Q04DX002 (ip), vehicle: saline 104 % of control | dose: 50.0 mg/kg/injection, schedule: Q04DX002 (ip), vehicle: saline 107 % of control | dose: 100.0 mg/kg/injection, schedule: Q04DX002 (ip), vehicle: saline 96 % of control

CN(C)c1nc2ccccc2o1
inactive: [1] 94 % of control | [2] 102 % of control | [3] 105 % of control

CCCCn1cnc(=O)c2[nH]cnc21
inactive: dose: 3.12 mg/kg/injection, schedule: Q01DX009 (ip), vehicle: saline 90 % of control | dose: 6.25 mg/kg/injection, schedule: Q01DX009 (ip), vehicle: saline 94 % of control | dose: 12.5 mg/kg/injection, schedule: Q01DX009 (ip), vehicle: saline 95 % of control | dose: 25.0 mg/kg/injection, schedule: Q01DX001 (ip), vehicle: saline 98 % of control | dose: 25.0 mg/kg/injection, schedule: Q04DX003 (ip), vehicle: saline 96 % of control | dose: 50.0 mg/kg/injection, schedule: Q01DX001 (ip), vehicle: saline 96 % of control | dose: 50.0 mg/kg/injection, schedule: Q01DX009 (ip), vehicle: saline 97 % of control | [7] 105 % of control | [4] 100 % of control | [8] 87 % of control | [9] 107 % of control

C=CCCCCCCCCC(=O)O
inactive: dose: 100.0 mg/kg/injection, schedule: Q01DX009 (ip), vehicle: other 104 % of control | dose: 100.0 mg/kg/injection, schedule: Q04DX002 (ip), vehicle: other 87 % of control | dose: 200.0 mg/kg/injection, schedule: Q01DX009 (ip), vehicle: other 93 % of control | dose: 200.0 mg/kg/injection, schedule: Q04DX002 (ip), vehicle: other 112 % of control | dose: 400.0 mg/kg/injection, schedule: Q01DX009 (ip), vehicle: other 89 % of control

N=c1ccn(O)cc1[N+](=O)[O-]
inactive: [4] 108 % of control | [5] 120 % of control | [6] 114 % of control

S=C(NP(=S)(NC(=S)N1CC1)NC(=S)N1CC1)N1CC1
inactive: [1] 95 % of control | [2] 91 % of control | [3] 90 % of control

CCOC(=O)C(Cc1ccc(O)cc1)Nc1nc2ccccc2o1 (stereo not drawn)
inactive: [1] 96 % of control | [2] 96 % of control | [3] 96 % of control

Oc1ccccc1C=Nc1ccccc1S.[Cu+2]
inactive: dose: 100.0 mg/kg/injection, schedule: Q01DX001 (ip), vehicle: other 97 % of control | dose: 200.0 mg/kg/injection, schedule: Q01DX001 (ip), vehicle: other 94 % of control | dose: 400.0 mg/kg/injection, schedule: Q01DX001 (ip), vehicle: other 96 % of control

NC1CC[N-]CC1.NC1CC[N-]CC1.[Cl][Pt+2][Cl]
inactive: [7] 108 % of control | [8] 94 % of control | [9] 102 % of control | dose: 200.0 mg/kg/injection, schedule: Q01DX009 (ip), vehicle: saline 100 % of control | dose: 200.0 mg/kg/injection, schedule: Q04DX003 (ip), vehicle: saline 108 % of control | dose: 400.0 mg/kg/injection, schedule: Q04DX003 (ip), vehicle: saline 100 % of control

CC(=O)Oc1cccc(C#N)c1
inactive: [10] 98 % of control | [11] 107 % of control | [12] 98 % of control

CCC(CC)C(=O)O.[Ag]
inactive: [4] 101 % of control

CCOC(=O)c1c[nH]c2c(c1=O)c(=O)n(C)c(=O)n2C
inactive: dose: 100.0 mg/kg/injection, schedule: Q01DX001 (ip), vehicle: Klucel (hydroxypropylcellulose) (HPC) 97 % of control | dose: 200.0 mg/kg/injection, schedule: Q01DX001 (ip), vehicle: Klucel (hydroxypropylcellulose) (HPC) 101 % of control | dose: 400.0 mg/kg/injection, schedule: Q01DX001 (ip), vehicle: Klucel (hydroxypropylcellulose) (HPC) 94 % of control

O=C1c2ccccc2C(=O)c2c3c(cc(NCCNCCO)c21)N(CCO)CCN3
inactive: dose: 25.0 mg/kg/injection, schedule: Q01DX009 (ip), vehicle: DMSO 119 % of control | dose: 50.0 mg/kg/injection, schedule: Q01DX009 (ip), vehicle: DMSO 121 % of control | dose: 200.0 mg/kg/injection, schedule: Q01DX009 (ip), vehicle: DMSO 122 % of control

O=C(O)CSCc1nc2ccccc2[nH]1
inactive: [13] 92 % of control | [10] 101 % of control | [14] 100 % of control | [11] 92 % of control | [15] 96 % of control | [12] 95 % of control

CCOC(=O)c1cnc(C)nc1Nc1ccccc1Br
inactive: [16] 98 % of control | [17] 93 % of control | [18] 101 % of control

O=c1cc(NCc2cccc(Cl)c2)[nH]c(=O)[nH]1
inactive: dose: 100.0 mg/kg/injection, schedule: Q01DX001 (ip), vehicle: saline with Tween-80 91 % of control | dose: 200.0 mg/kg/injection, schedule: Q01DX001 (ip), vehicle: saline with Tween-80 86 % of control | dose: 400.0 mg/kg/injection, schedule: Q01DX001 (ip), vehicle: saline with Tween-80 89 % of control

CCCCCC#CC(=O)OCCCC
inactive: [19] 102 % of control | [20] 94 % of control | [21] 108 % of control

Cc1ccc(S(=O)(=O)OC2COCOC2)cc1
inactive: [13] 110 % of control | [14] 102 % of control | [15] 91 % of control

CSc1n[nH]c(N=[N+]=[N-])n1
inactive: [19] 104 % of control | [20] 115 % of control | [21] 104 % of control

CCOC(=O)c1cc(N/N=C2/CCCNC2=O)c[nH]1
inactive: [1] 99 % of control | [2] 103 % of control | [3] 94 % of control

O=C(NC(=O)c1ccc(Cl)c(Cl)c1)Nc1ccccc1C(F)(F)F
inactive: [16] 102 % of control | [17] 98 % of control | [18] 98 % of control

O=[N+]([O-])c1cc(S(=O)(=O)Oc2ccccc2)ccc1Cl
inactive: dose: 12.5 mg/kg/injection, schedule: Q01DX009 (ip), vehicle: Klucel (hydroxypropylcellulose) (HPC) 105 % of control | dose: 25.0 mg/kg/injection, schedule: Q01DX009 (ip), vehicle: Klucel (hydroxypropylcellulose) (HPC) 105 % of control | dose: 50.0 mg/kg/injection, schedule: Q01DX001 (ip), vehicle: carboxymethylcellulose (CMC) 116 % of control | dose: 50.0 mg/kg/injection, schedule: Q01DX009 (ip), vehicle: Klucel (hydroxypropylcellulose) (HPC) 100 % of control | [1] 100 % of control | [16] 98 % of control | [2] 100 % of control | [17] 103 % of control | [3] 105 % of control | [18] 89 % of control
